Like-named read-outs stand apart in the source and are kept apart here.
What was measured:
[1] = tested on: P. falciparum drug-sensitive 3D7 strain; test: Erythrocytic-stage parasite growth inhibition, diaphorase-coupled LDH assay, 3D7; assay type: cell-based, Plasmodium falciparum; details: for IC50: Plasmodium falciparum; for Selectivity index IC50 (HepG2/3D7): HepG2 IC50 / 3D7 IC50
Experimental: (§1) Selected hit compounds were also tested against erythrocytic-stage parasites of P. falciparum drug-sensitive 3D7 and drug-resistant Dd2 strains ([39]). For the phenotypic assay, parasite cultures were synchronized with 5% (wt/vol) D-sorbitol as previously described ([40]). A synchronized culture containing ring-stage parasites of 0.3% parasitemia was initiated with a culture volume of 25 μL/well on a 384-well plate. A series of diluted compounds (at final concentrations of 50, 10, 2, 0.4, and 0.08 μM) were used to calculate IC50 values. Mefloquine at 50 μM and atovaquone at 20 μM were used as no-growth control (100% inhibition). After 72 h of incubation, parasite growth was measured by diaphorase-coupled lactate dehydrogenase (LDH) assay as previously described ([41]). Absorbance at 650 nm was measured using SpectraMax Paradigm multimode microplate reader (Molecular Devices, San Jose, CA, USA). The IC50 values were calculated as described above.

[2] = tested on: P. falciparum drug-resistant Dd2 strain; test: Erythrocytic-stage parasite growth inhibition, diaphorase-coupled LDH assay, Dd2; assay type: cell-based, Plasmodium falciparum; details: for IC50: Plasmodium falciparum
Experimental: as §1

HepG2 cell line = test: Cytotoxicity assay (Cell Counting Kit-8); assay type: cell-based, human; details: Homo sapiens
Experimental: Cytotoxicity against human cells was evaluated using the human liver carcinoma HepG2 cell line. HepG2 cells were cultured in D-MED supplemented with 4 mM L-glutamine and 10% fetal bovine serum (FBS) in a 75-cm^2 flask (Violamo) at 37°C. For the cytotoxicity assay, HepG2 cells in semiconfluent state were detached from the flask by incubating the cells with 5 mL D-MEM containing 0.25% trypsin-EDTA. After detachment, HepG2 cells were resuspended in D-MEM-supplemented L-glutamine and FBS, and cell viability was evaluated by incubating cells with 0.4% Trypan blue on a hemocytometer. An approximately 50-μL suspension containing 3,000 cells was dispensed into each well on a 384-well clear-bottom plate using a Multidrop Combi dispenser. Compounds dissolved in DMSO had been dispensed into wells to yield final concentrations of 100, 20, 4, 0.8, and 0.2 μM before cells were added. After cells were added to the plates, they were cultured at 37°C under 5% CO2. After 48 h cultivation, 5 μL of Cell Counting Kit-8 (Dojindo, Japan) was added, and the plates were further incubated for 2 h to assess cell growth and survival.

PfDPCK = PfDPCK (Plasmodium falciparum, UniProt Q8IL34); test: PfDPCK inhibition, enzyme-coupled fluorescence ADP detection assay (HTS and IC50 determination); assay type: biochemical
Experimental: High-throughput screening against recombinant PfDPCK was performed using the Drug Discovery Initiative (DDI) full library, available from The University of Tokyo, composed of approximately 210,000 compounds. The primary assay was performed on 1,536-well white plate format with a final volume of 2 μL/well, containing 10 μM test compounds using a Multidrop Combi reagent dispenser (Thermo Fisher Scientific, Waltham, MA). The reaction was conducted in the assay buffer described above with 100 μM ATP and 50 μM dephospho-CoA. The assay was carried out at room temperature for 4 h in a closed plastic container with wet tissues. The reaction was stopped, and produced ADP was quantified using an enzyme-coupled fluorescence ADP detection assay, using PHERAstar microplate reader (BMG Labtech, Offenburg, Germany) with excitation at 540 nm and emission at 590 nm, as previously described ([17]). The inhibition level was calculated as the percentage inhibition of DPCK activity with each compound compared to the activity with only dimethyl sulfoxide (DMSO) as control (no inhibition) and that with no enzyme as 100% inhibition. IC50 values of the hit compounds were determined under the same assay conditions for the screening: Z′ factor, signal-to-background ratio (S/B), signal-to-noise ratio (S/N), and coefficient of variation (CV) were calculated to estimate the quality of screening system as previously described ([18], [38]).
The primary hits were reassayed in quadruplicate (n = 4) as in the primary screening. We next tested the confirmed secondary hits to exclude false positives that inhibit coupled fluorescence assay, but not PfDPCK. After exclusion of false positives, all tertiary hits were tested against human HsCOASY in the counterassay to exclude compounds that inhibit both PfDPCK and HsCOASY. The compounds showing >10% inhibition against HsCOASY were excluded from further studies. The IC50 values of the hit compounds were determined under the same assay conditions described as above for the primary screening, with the serially diluted compounds at 20, 10, 2.5, 0.5, and 0.1 μM at final concentrations. The assay was conducted in quadruplicate for each dilution, and IC50 values were calculated using GraphPad Software (San Diego, California USA).

[3] = drug-sensitive 3D7, 72 h, means ± SEMs, read-out: IC50 (μM) of: Pf cell 3D7
[4] = drug-resistant Dd2, 72 h, means ± SEMs, read-out: IC50 (μM) of: Pf cell Dd2
[5] = HepG2, ND (maximum concentration tested 100 μM), read-out: IC50 (μM) of: HepG2
[6] = recombinant enzyme, means ± SEMs, read-out: IC50 (μM) of: PfDPCK
[7] = HepG2, 48 h, means ± SEMs, read-out: IC50 (μM) of: HepG2
[8] = 3D7, 72 h, read-out: IC50 (μM) of: Pf cell 3D7
[9] = DD2, 72 h, read-out: IC50 (μM) of: Pf cell Dd2
[10] = HepG2, read-out: IC50 (μM) of: HepG2
[11] = 3D7, Table S1, means ± SEM, read-out: IC50 (μM) Pf cell 3D7
[12] = DD2, Table S1, means ± SEM, read-out: IC50 (μM) Pf cell Dd2
[13] = Table 2, PfDPCK inhibitor scaffolds Gr4, Gr5, Gr8, read-out: IC50

PfDPCK, sequence (Q8IL34 entry or part of it): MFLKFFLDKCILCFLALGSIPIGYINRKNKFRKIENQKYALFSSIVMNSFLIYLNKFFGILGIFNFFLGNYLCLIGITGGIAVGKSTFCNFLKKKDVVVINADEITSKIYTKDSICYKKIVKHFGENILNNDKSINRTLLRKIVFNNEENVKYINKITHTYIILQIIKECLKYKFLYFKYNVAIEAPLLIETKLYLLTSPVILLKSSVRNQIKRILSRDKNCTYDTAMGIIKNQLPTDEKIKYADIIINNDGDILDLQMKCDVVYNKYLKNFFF

SMILES | IC50 [1, 3] | IC50 [2, 4] | IC50 (HepG2 cell line; [5]) | IC50 (PfDPCK; [6]) | Selectivity index IC50 (HepG2/3D7) [1] | Selectivity index IC50 (HepG2/Dd2) [2] | IC50 (HepG2 cell line; [7]) | other results
Cc1ccc(-c2nnc(Nc3ccc(O)cc3)c3ccccc23)cc1S(=O)(=O)NCCO [Compound A-26] | 14.45 ± 0.08 µM | 3.41 ± 1.22 µM | > 100 µM | 3.5 ± 0.04 µM | – | – | – | –
CCN(CC)CCn1c(=N)n(CC(=O)c2cc(C(C)(C)C)c(O)c(C(C)(C)C)c2)c2ccccc21 [Compound A-30] | 0.08 ± 0.01 µM | 0.09 ± 0.06 µM | – | 3.83 ± 0.03 µM | 45.1 | 43.5 | 3.75 ± 3.55 µM | –
CC1(C)NC(C(=O)O)C23c4c5c6c7c8c9c(c%10c%11c2c2c4c4c%12c5c5c6c6c8c8c%13c9c9c%10c%10c%11c%11c2c2c4c4c%12c%12c5c5c6c8c6c8c%13c9c9c%10c%10c%11c2c2c4c4c%12c5c6c5c8c9c%10c2c45)C713 (stereo not drawn) [Compound A-31] | – | – | – | – | – | – | – | IC50 [1, 8]: > 50 µM; IC50 [2, 9]: 0.67 ± 0.02 µM; IC50 (HepG2 cell line; [10]): > 100 µM; IC50 (PfDPCK): 3.83 ± 0.04 µM
COc1ccc(NC(C)=O)cc1/N=C/c1cc(Br)cc(Br)c1O [Compound A-38] | 29.06 ± 0.2 µM | 0.7 ± 0.1 µM | – | 4.87 ± 0.05 µM | >3.4 | >142.8 | > 100 µM | –
Cc1cccc(-n2cc(-c3ccccc3)c3c(NCCOCCO)ncnc32)c1 [Compound A-42] | – | – | – | – | – | – | – | IC50 [1, 11]: 38.2 ± 2.91 µM; IC50 [2, 12]: 49.7 ± 3.22 µM; IC50 (HepG2 cell line; HepG2, Table S1, means ± SEM, read-out: IC50 (μM) HepG2): 63.2 ± 3.48 µM; IC50 (PfDPCK; [13]): 6.14 ± 0.28 µM
Cc1cc(-c2csc(N3CCCC3)n2)c(C)n1-c1c(C)n(C)n(-c2ccccc2)c1=O [Compound A-44] | 3.96 ± 0.04 µM | 1.75 ± 0.05 µM | > 100 µM | 6.33 ± 0.11 µM | – | – | – | –
O=C(O)C1NC(c2ccncc2)C23c4c5c6c7c8c9c(c%10c%11c2c2c4c4c%12c5c5c6c6c8c8c%13c9c9c%10c%10c%11c%11c2c2c4c4c%12c%12c5c5c6c8c6c8c%13c9c9c%10c%10c%11c2c2c4c4c%12c5c6c5c8c9c%10c2c45)C713 (stereo not drawn) [Compound A-45] | – | – | – | – | – | – | – | IC50 [1, 8]: 15.6 ± 0.61 µM; IC50 [2, 9]: 1.29 ± 0.02 µM; IC50 (HepG2 cell line; [10]): > 100 µM; IC50 (PfDPCK): 6.68 ± 0.24 µM
COC(C(=O)N/N=C/c1ccccc1)c1ccccc1 (stereo not drawn) [Compound A-50] | > 50 µM | 6.62 ± 1.12 µM | > 100 µM | 6.99 ± 0.13 µM | – | – | – | –
Cc1cn2c(/C=C3\C(=O)N(C)c4ccccc43)c(C)nc2s1 [Compound A-51] | 15.76 ± 0.12 µM | 0.62 ± 0.23 µM | – | 7.05 ± 0.08 µM | >6.3 | >166.6 | > 100 µM | –
O=C1NC(=O)/C(=C/c2ccc(C(=O)Nc3ccc(O)cc3C(=O)O)cc2)S1 [Compound A-60] | 34.14 ± 0.04 µM | 5.53 ± 0.95 µM | > 100 µM | 8.35 ± 0.05 µM | – | – | – | –
Cc1cc(-c2csc(-c3ccsc3)n2)c(C)n1CCCCCC(=O)O [Compound A-96] | – | – | – | – | – | – | – | IC50 [1, 11]: 31 ± 2.1 µM; IC50 [2, 12]: 27.7 ± 2.6 µM; IC50 (PfDPCK; [13]): 14.7 ± 0.28 µM
OC(c1cc(C(F)(F)F)nc2c(C(F)(F)F)cccc12)C1CCCCN1 (stereo not drawn) [Mefloquine, reference compound] | 0.013 ± 0.006 µM | 0.19 ± 0.07 µM | – | – | 133 | 8.8 | 1.73 ± 0.7 µM | –

From PMC9664868, “Dephospho-Coenzyme A Kinase Is an Exploitable Drug Target against Plasmodium falciparum: Identification of Selective Inhibitors by High-Throughput Screening of a Large Chemical Compound Library” (Antimicrobial Agents and Chemotherapy, 2022)
